In patent US20230065437A1, “ACIDIZING OF SUBTERRANEAN FORMATIONS WITH PLACEMENT OF SCALE INHIBITOR” (priority 2021, published 2023):
In brackets after ≈: the same amount, converted by molar mass.

Tests used:
[1] = cited from earlier work
[2] = Solubility of PMIDA in water and HCl at various temperatures and pressures; assay type: physicochemical; details: for solubility thermodynamic: aqueous buffer, thermodynamic from solid
Excerpt: In certain embodiments, the organophosphorous compound comprising a phosphonoalkyl moiety is at least partially solubilized in the acid component. As used herein, the term “at least partially solubilized,” and grammatical variants thereof, with reference to the organophosphorous compound comprising a phosphonoalkyl moiety in the acid component refers to dissolution of at least about 2% weight per volume (w/v) of the organophosphorous compound comprising a phosphonoalkyl moiety in the acid component at room temperature. As used herein, the term “room temperature” refers to about 15° C. to about 25° C. The remaining excess organophosphorous compound comprising a phosphonoalkyl moiety may be suspended in the acid component while it is undergoing dynamic fluid flow at room temperature. As temperatures increase (e.g., as the treatment fluid is introduced into a subterranean formation and encounters downhole temperatures), the solubility of the organophosphorous compound comprising a phosphonoalkyl moiety in the acid component may increase. Indeed, the solubility of the organophosphorous compound comprising a phosphonoalkyl moiety increases as a function of acid concentration, and temperature.

| Compound | pKa values [1] | solubility thermodynamic ([2]; 7.5% HCl, 37.8 °C, Atm., 100° F.) | solubility thermodynamic ([2]; 7.5% HCl, 65.6 °C, Atm., 150° F.) | solubility thermodynamic ([2]; 10% HCl, 37.8 °C, Atm., 100° F.) | solubility thermodynamic ([2]; 10% HCl, 65.6 °C, Atm., 150° F.) | solubility thermodynamic ([2]; 10% HCl, 93.3 °C, Atm., 200° F.) | solubility thermodynamic ([2]; 15% HCl, 37.8 °C, 200 psi, 100° F.) | solubility thermodynamic ([2]; 15% HCl, 37.8 °C, Atm., 100° F.) | solubility thermodynamic ([2]; 15% HCl, 65.6 °C, 200 psi, 150° F.) | solubility thermodynamic ([2]; 15% HCl, 65.6 °C, Atm., 150° F.) | solubility thermodynamic ([2]; 15% HCl, 93.3 °C, 200 psi, 200° F.) | solubility thermodynamic ([2]; 15% HCl, 93.3 °C, Atm., 200° F.) | Solubility Average ([2]; Atm., 7.5% HCl, 200° F.) |
| --- | --- | --- | --- | --- | --- | --- | --- | --- | --- | --- | --- | --- | --- |
| O=C(O)CN(CCO)CC(=O)O [HEIDA, N-(2-hydroxyethyl)iminodiacetic acid] | about 2.2 | – | – | – | – | – | – | – | – | – | – | – | – |
| O=C([O-])CC(NC(C(=O)[O-])C(O)C(=O)[O-])C(=O)[O-].[Na+].[Na+].[Na+].[Na+] (centres unmarked) [HIDS, tetrasodium 3-hydroxy-2,2′-iminodisuccinate] | about 2.83 | – | – | – | – | – | – | – | – | – | – | – | – |
| O=C(O)CN(CC(=O)O)CP(=O)(O)O [PMIDA, N-(phosphonomethyl)iminodiacetic acid] | – | 17.4 mg/mL (≈ 76.6 mM) | 39.7 mg/mL (≈ 175 mM) | 20 mg/mL (≈ 88.1 mM) | 49.1 mg/mL (≈ 216 mM) | 101 mg/mL (≈ 445 mM) | 41.1 mg/mL (≈ 181 mM) | 30.6 mg/mL (≈ 135 mM) | 95.7 mg/mL (≈ 421 mM) | 72.2 mg/mL (≈ 318 mM) | 203 mg/mL (≈ 896 mM) | 166 mg/mL (≈ 731 mM) | 10.00 w/v % |
